pIC50: −log10 of the molar value.
Test system: CWR22RV1 cells
Test: Inhibition of proliferation of CWR22RV1 cells (CCK-8)
Assay type: cell-based, human
Details: Homo sapiens, CWR22Rv1, 144 h, 6 days
Method: • CWR22RV1 cell line (Cell Bank of Chinese Academy of Sciences, TCHu100) • FBS (Gibco, Cat. No. 10099-141) • 0.01M PBS (Biosharp, Cat. No. 162262) • RIPM1640 (Hyclone, Cat. No. 308090.01) • Penicillin-Streptomycin (Hyclone, Cat. No. SV30010) • Cell counting kit-8 (Signalway Antibody, Cat. No. CP002) • DMSO (Sigma, Cat. No. D5879) • Centrifuge Tube, 15 ml (Excell Bio, Cat. No. CS015-0001) • Cell Culture Dish, (Excell Bio, Cat. No. CS016-0128) • 96-well cell culture cluster (Corning, Cat. No. 3599) • 2. Experimental method (1) Preparation of Buffer
1) CWR22RV1 cells were subcultured in cell culture medium, and the cells in good growth condition were seeded in a 96-well plate, 80 μL for each well, thus the number of cells per well was 1500, then the plate was cultured overnight in a 37° C., 5% CO2 cell incubator.
2) The drug was prepared with dimethyl sulfoxide (DMSO) as a 30 mM stock solution. Prior to use, the solution was diluted 3 times with DMSO, and then diluted with a 3-fold gradient to obtain 9 concentration gradients. Then, each concentration of the compound was further diluted 200 times with the culture solution (to ensure that DMSO concentration in the culture system was 0.1%), 2 repeat wells for each concentration. The diluted solution of each compound (20 μL) was added to the cell culture well (with a final concentration of 10 μM, 3.3 μM, 1.1 μM . . . ), and shaken gently for mixing. In addition, three negative control wells containing only cells and three blank control wells containing only culture medium (20 μL DMSO diluted 200 times with culture medium being added to six wells) were included.
(1) After culturing for 6 days, 10 μL CCK-8 was added to each well and cultured for additional 2.5 h in a 37° C., 5% CO2 cell incubator.
(2) The absorbance (OD value) at 450 nm was measured with a multifunctional microplate reader.
(3) The data was analyzed by the Dose-response-inhibition equation in the software GraphPad Prism6, and the IC50 value was obtained.

SMILES	pIC50
CCS(=O)(=O)Nc1ccc(N2CCC3(CC3)C2)c(-c2cn(C)c(=O)c3[nH]ccc23)c1 [Compound 7, N-(3-(6-methyl-7-oxo-6,7-dihydro-1H-pyrrolo[2,3-c]pyridin-4-yl)-4-(5-aza-spiro[2.4]heptan-5-yl)phenyl)ethylsulfonamide]	7.74
CCS(=O)(=O)Nc1ccc(N2CCC3(CC2)CC3)c(-c2cn(C)c(=O)c3[nH]ccc23)c1 [Compound 8]	8.22
CCS(=O)(=O)Nc1ccc(N2CCCC3(CC3)C2)c(-c2cn(C)c(=O)c3[nH]ccc23)c1 [Compound 9, N-(3-(6-methyl-7-oxo-6,7-dihydro-1H-pyrrolo[2,3-c]pyridin-4-yl)-4-(5-aza-spiro[2.5]octan-5-yl)phenyl)ethylsulfonamide]	7.52
Cn1cc(-c2cc(NS(=O)(=O)C3CC3)ccc2N2CC3(CCC3)C2)c2cc[nH]c2c1=O [Compound 10, N-(3-(6-methyl-7-oxo-6,7-dihydro-1H-pyrrolo[2,3-c]pyridin-4-yl)-4-(2-aza-spiro[3.3]heptan-2-yl)phenyl)cyclopropanesulfonamide]	7.54
Cn1cc(-c2cc(NS(C)(=O)=O)ccc2N2CC3(CCC3)C2)c2cc[nH]c2c1=O [Compound 11, N-(3-(6-methyl-7-oxo-6,7-dihydro-1H-pyrrolo[2,3-c]pyridin-4-yl)-4-(2-aza-spiro[3.3]heptan-2-yl)phenyl)methanesulfonamide]	7.52
Cn1cc(-c2cc(NS(=O)(=O)C3COC3)ccc2N2CC3(CCC3)C2)c2cc[nH]c2c1=O [Compound 12, N-(3-(6-methyl-7-oxo-6,7-dihydro-1H-pyrrolo[2,3-c]pyridin-4-yl)-4-(2-aza-spiro[3.3]heptan-2-yl)phenyl)oxetane-3-sulfonamide]	7.05
CCCCS(=O)(=O)Nc1ccc(N2CC3(CCC3)C2)c(-c2cn(C)c(=O)c3[nH]ccc23)c1 [Compound 13, N-(3-(6-methyl-7-oxo-6,7-dihydro-1H-pyrrolo[2,3-c]pyridin-4-yl)-4-(2-aza-spiro[3.3]heptan-2-yl)phenyl)butane-1-sulfonamide]	7.10
CCS(=O)(=O)Nc1ccc(N2CC3(CCC3)C2)c(-c2cn(C)c(=O)c3[nH]ccc23)c1 [Compound 14, N-(3-(6-methyl-7-oxo-6,7-dihydro-1H-pyrrolo[2,3-c]pyridin-4-yl)-4-(2-aza-spiro[3.3]heptan-2-yl)phenyl)ethanesulfonamide]	7.51
Cn1cc(-c2cc(NS(C)(=O)=O)ccc2N2CC3(COC3)C2)c2cc[nH]c2c1=O [Compound 15, N-(3-(6-methyl-7-oxo-6,7-dihydro-1H-pyrrolo[2,3-c]pyridin-4-yl)-4-(2-oxa-6-aza-spiro[3.3]heptan-6-yl)phenyl)methanesulfonamide]	6.19
CCS(=O)(=O)Nc1ccc(N2CC3(COC3)C2)c(-c2cn(C)c(=O)c3[nH]ccc23)c1 [Compound 16, N-(3-(6-methyl-7-oxo-6,7-dihydro-1H-pyrrolo[2,3-c]pyridin-4-yl)-4-(2-oxa-6-aza-spiro[3.3]heptan-6-yl)phenyl)ethanesulfonamide]	6.42
CCCCS(=O)(=O)Nc1ccc(N2CC3(COC3)C2)c(-c2cn(C)c(=O)c3[nH]ccc23)c1 [Compound 17, N-(3-(6-methyl-7-oxo-6,7-dihydro-1H-pyrrolo[2,3-c]pyridin-4-yl)-4-(2-oxa-6-aza-spiro[3.3]heptan-6-yl)phenyl)butan-1-sulfonamide]	6.36
Cn1cc(-c2cc(NS(=O)(=O)C3CC3)ccc2N2CC3(COC3)C2)c2cc[nH]c2c1=O [Compound 18, N-(3-(6-methyl-7-oxo-6,7-dihydro-1H-pyrrolo[2,3-c]pyridin-4-yl)-4-(2-oxa-6-aza-spiro[3.3]heptan-6-yl)phenyl)cyclopropanesulfonamide]	6.28
CCOC(=O)C1CC12CCN(c1ccc(NS(=O)(=O)CC)cc1-c1cn(C)c(=O)c3[nH]ccc13)CC2 (stereo not shown) [Compound 19]	6.39

Source: patent publication US12162878B2 (HINOVA PHARMACEUTICALS INC., priority 2018, dated 2024)
